Our source for the GI50 values is the Kinase Knowledgebase extract (Sharma et al. 2016).

For assay [1], the system named is EGFR (Human), P00533 [Assessment of Proliferation in EGFR DelE746_A750 Mutant Expressing HCC827 Cells].
The subject of assay [2] is EGFR (Human), P00533 [T790M/L858R]. The following applies: nci-h1975.

Chain of EGFR (Human), P00533 [Assessment of Proliferation in EGFR DelE746_A750 Mutant Expressing HCC827 Cells] (P00533 whole entry, looked up, stated change not applied): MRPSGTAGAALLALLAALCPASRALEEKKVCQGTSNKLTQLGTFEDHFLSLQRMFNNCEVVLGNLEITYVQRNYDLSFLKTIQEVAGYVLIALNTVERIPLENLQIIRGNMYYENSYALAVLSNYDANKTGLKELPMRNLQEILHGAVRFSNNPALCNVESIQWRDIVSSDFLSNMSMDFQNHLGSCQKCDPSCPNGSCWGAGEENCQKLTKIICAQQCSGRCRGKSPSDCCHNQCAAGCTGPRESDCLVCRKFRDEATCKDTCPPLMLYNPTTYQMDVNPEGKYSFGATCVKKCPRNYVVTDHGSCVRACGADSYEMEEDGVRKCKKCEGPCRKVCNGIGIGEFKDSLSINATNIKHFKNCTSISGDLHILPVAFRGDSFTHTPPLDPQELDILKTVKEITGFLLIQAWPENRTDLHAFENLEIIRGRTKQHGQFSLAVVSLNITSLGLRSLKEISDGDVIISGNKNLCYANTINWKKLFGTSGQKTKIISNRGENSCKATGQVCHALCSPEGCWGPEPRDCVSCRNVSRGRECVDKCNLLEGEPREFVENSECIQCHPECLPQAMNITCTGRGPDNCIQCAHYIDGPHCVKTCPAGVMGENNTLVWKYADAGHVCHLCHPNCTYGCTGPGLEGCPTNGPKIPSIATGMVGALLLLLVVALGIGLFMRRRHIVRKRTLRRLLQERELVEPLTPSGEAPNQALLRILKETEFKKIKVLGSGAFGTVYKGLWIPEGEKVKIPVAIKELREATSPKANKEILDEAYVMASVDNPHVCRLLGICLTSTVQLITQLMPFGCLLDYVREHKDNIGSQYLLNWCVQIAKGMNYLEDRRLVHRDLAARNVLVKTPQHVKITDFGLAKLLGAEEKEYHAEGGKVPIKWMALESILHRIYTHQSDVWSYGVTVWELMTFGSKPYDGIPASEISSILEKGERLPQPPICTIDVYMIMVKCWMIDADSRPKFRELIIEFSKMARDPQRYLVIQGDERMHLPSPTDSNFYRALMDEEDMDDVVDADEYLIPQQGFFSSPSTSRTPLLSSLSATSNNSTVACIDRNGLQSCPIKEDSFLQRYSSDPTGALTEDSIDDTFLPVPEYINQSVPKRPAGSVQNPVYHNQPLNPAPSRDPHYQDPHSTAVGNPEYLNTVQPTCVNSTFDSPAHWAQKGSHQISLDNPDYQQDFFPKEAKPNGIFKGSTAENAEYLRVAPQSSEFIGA
Chain of EGFR (Human), P00533 [T790M/L858R] (P00533 whole entry T790M/L858R, looked up): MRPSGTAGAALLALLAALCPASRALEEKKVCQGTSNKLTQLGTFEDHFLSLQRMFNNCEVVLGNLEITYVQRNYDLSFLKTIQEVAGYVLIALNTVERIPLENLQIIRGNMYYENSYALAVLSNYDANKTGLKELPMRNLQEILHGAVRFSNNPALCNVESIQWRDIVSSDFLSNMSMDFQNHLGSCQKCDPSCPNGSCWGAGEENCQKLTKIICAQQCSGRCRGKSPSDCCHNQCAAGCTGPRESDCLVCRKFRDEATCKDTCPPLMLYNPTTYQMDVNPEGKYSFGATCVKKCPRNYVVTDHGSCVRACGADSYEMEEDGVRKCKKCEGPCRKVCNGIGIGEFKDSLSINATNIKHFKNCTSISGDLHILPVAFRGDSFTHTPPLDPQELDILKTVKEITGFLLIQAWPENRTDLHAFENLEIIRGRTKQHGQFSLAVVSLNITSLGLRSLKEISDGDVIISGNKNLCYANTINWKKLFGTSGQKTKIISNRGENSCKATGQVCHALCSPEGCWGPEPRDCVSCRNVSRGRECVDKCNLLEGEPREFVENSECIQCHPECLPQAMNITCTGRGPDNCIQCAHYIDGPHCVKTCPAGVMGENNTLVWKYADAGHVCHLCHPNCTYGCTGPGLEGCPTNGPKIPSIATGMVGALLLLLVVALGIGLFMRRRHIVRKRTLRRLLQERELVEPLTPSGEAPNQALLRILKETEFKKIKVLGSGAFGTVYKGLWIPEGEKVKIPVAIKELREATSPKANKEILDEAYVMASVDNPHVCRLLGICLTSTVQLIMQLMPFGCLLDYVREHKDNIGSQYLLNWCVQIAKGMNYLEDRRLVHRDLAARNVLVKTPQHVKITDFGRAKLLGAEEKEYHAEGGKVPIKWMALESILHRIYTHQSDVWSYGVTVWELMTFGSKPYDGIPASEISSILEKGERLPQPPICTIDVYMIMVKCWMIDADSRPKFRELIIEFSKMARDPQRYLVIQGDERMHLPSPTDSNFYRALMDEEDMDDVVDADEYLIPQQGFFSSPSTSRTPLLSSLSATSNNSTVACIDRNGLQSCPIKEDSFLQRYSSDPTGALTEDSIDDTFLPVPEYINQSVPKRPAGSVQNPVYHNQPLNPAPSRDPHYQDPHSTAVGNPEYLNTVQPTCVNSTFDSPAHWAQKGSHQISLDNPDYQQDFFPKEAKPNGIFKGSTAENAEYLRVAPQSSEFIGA

For `C=CC(=O)Nc1cccc(Oc2nc(Nc3ccc(N4CCN(C)CC4)cn3)nc3ccsc23)c1`, the concentration for 50% growth inhibition (GI50) in assay [1] and in assay [2] was ≤ 50 nM each time.

Regarding `C=CC(=O)Nc1cccc(Oc2nc(Nc3ccc(N4CC[C@@H](n5ccnc5)C4)cc3)nc3ccsc23)c1`, the concentration for 50% growth inhibition (GI50) is 50 to 100 nM in assay [1] and ≤ 50 nM in assay [2].

For `C=CC(=O)Nc1cccc(Oc2nc(Nc3ccc(OCCN(C)C)c(F)c3)nc3ccsc23)c1`, the GI50 in assay [1] and in assay [2] was ≤ 50 nM each time.

Take `C=CC(=O)Nc1cccc(Oc2nc(Nc3ccc(N4CCN(C)CC4)cc3)nc3ccsc23)c1`: the GI50 in assay [1] and in assay [2] was ≤ 50 nM in each case.

On to `C=CC(=O)Nc1cccc(Nc2nc(Nc3ccc(C4CCN(C)CC4)cc3)nc3ccsc23)c1`, for which the GI50 in assay [1] and in assay [2] was ≤ 50 nM each time.

With `C=CC(=O)Nc1cccc(Oc2nc(Nc3ccc(CN4CCCC4)cc3)nc3ccsc23)c1`, the 50% growth inhibitory concentration (GI50) in assay [1] and in assay [2] was ≤ 50 nM throughout.

`C=CC(=O)Nc1cccc(Oc2nc(Nc3ccc(CN4CCC(N(C)C)CC4)cc3)nc3ccoc23)c1`: the GI50 in assay [1] and in assay [2] was 50 to 100 nM in each case.

For `C=CC(=O)Nc1ccc(F)c(Nc2nc(Nc3ccc(N4CCN(C)CC4)cc3)nc3ccsc23)c1`, the GI50 in assay [1] is ≤ 50 nM; in assay [2], 50 to 100 nM.

Regarding `C=CC(=O)Nc1cccc(Oc2nc(Nc3ccc(C(=O)N4CCN(S(=O)(=O)CC)CC4)c(Cl)c3)nc3ccsc23)c1`, the GI50 in assay [1] was ≤ 50 nM; in assay [2] it was 50 to 100 nM.

For the molecule `C=CC(=O)Nc1cccc(Nc2nc(Nc3ccc(OCCCN(C)C)cc3)nc3ccsc23)c1`, the GI50 in assay [1] and in assay [2] was 50 to 100 nM throughout.

As to `C=CC(=O)Nc1cccc(Oc2nc(Nc3ccc(CN(CC)CC)cc3)nc3ccsc23)c1`, the GI50 in assay [1] and in assay [2] was ≤ 50 nM throughout.

For `C=CC(=O)Nc1cccc(Oc2nc(Nc3ccc(N4CCN(CC(F)(F)F)CC4)cc3)nc3ccsc23)c1`, the GI50 in assay [1] was 50 to 100 nM; in assay [2] it was ≤ 50 nM.

On to `C=CC(=O)Nc1cccc(Nc2nc(Nc3ccc(N4CCN(CC)CC4)cc3)nc3ccsc23)c1`, for which the concentration for 50% growth inhibition (GI50) in assay [1] and in assay [2] was ≤ 50 nM throughout.

On to `C=CC(=O)Nc1cccc(Oc2nc(Nc3ccc(N4CCC(N5CCOCC5)CC4)c(Cl)c3)nc3ccsc23)c1`, for which the GI50 in assay [1] and in assay [2] was ≤ 50 nM each time.

Turning to `C=CC(=O)Nc1cccc(Oc2nc(Nc3ccc(N4CCN(CC)CC4)cn3)nc3ccsc23)c1`, the GI50 in assay [1] and in assay [2] was ≤ 50 nM each time.

In the case of `C=CC(=O)Nc1cccc(Oc2nc(Nc3ccc(OCCN4CCOCC4)c(OC)c3)nc3ccsc23)c1`, the GI50 in assay [1] and in assay [2] was ≤ 50 nM in each case.

For the molecule `C=CC(=O)Nc1cccc(Oc2nc(Nc3ccc(C(=O)NCCN4CCCC4)cc3)nc3ccsc23)c1`, the 50% growth inhibitory concentration (GI50) in assay [1] and in assay [2] was ≤ 50 nM throughout.

In the case of `C=CC(=O)Nc1cccc(Oc2nc(Nc3ccc(N4CCC(N(C)C)CC4)cc3)nc3ccsc23)c1`, the GI50 in assay [1] and in assay [2] was ≤ 50 nM throughout.

`C=CC(=O)Nc1cccc(Oc2nc(Nc3ccc(C=CCN4CCCCC4)cc3)nc3ccsc23)c1`: the values for the GI50 in assay [1] and in assay [2] were ≤ 50 nM and 50 to 100 nM, respectively.

Regarding `C=CC(=O)Nc1cccc(Oc2nc(Nc3ccc4c(c3)NCCCO4)nc3ccsc23)c1`, the 50% growth inhibitory concentration (GI50) in assay [1] and in assay [2] was ≤ 50 nM in each case.

For the molecule `C=CC(=O)Nc1cccc(Oc2nc(Nc3ccc(CCS(C)(=O)=O)cc3)nc3ccsc23)c1`, the values for the GI50 in assay [1] and in assay [2] were 50 to 100 nM and ≤ 50 nM, respectively.

For the molecule `C=CC(=O)Nc1cccc(Oc2nc(Nc3ccc(CN4CCOCC4)cc3)nc3ccsc23)c1`, the results for the 50% growth inhibitory concentration (GI50) in assay [1] and in assay [2] were 50 to 100 nM and ≤ 50 nM, respectively.

As for `C=CC(=O)Nc1cccc(Oc2nc(Nc3ccc(CN4CCN(CC5CC5)CC4)cc3)nc3ccsc23)c1`, the GI50 in assay [1] and in assay [2] was ≤ 50 nM in each case.

On to `C=CC(=O)Nc1cccc(Oc2nc(Nc3ccc(C4=CCN(C)CC4)cc3)nc3ccsc23)c1`, for which the GI50 in assay [1] and in assay [2] was ≤ 50 nM in each case.

Regarding `C=CC(=O)Nc1cccc(Oc2nc(Nc3ccc(CN4CCC4)cc3)nc3ccsc23)c1`, the concentration for 50% growth inhibition (GI50) in assay [1] and in assay [2] was ≤ 50 nM in each case.

For `C=CC(=O)Nc1cccc(Oc2nc(Nc3ccc(N4CCC(n5ccnc5)CC4)cc3)nc3ccsc23)c1`, the GI50 in assay [1] and in assay [2] was ≤ 50 nM throughout.

As to `C=CC(=O)Nc1cccc(Oc2nc(Nc3ccc(C4(N)CC4)cc3)nc3ccsc23)c1`, the GI50 in assay [1] and in assay [2] was ≤ 50 nM in each case.

Turning to `C=CC(=O)Nc1cccc(Oc2nc(Nc3ccc(OCCN4CCOCC4)c(F)c3)nc3ccsc23)c1`, the GI50 in assay [1] was 50 to 100 nM; in assay [2] it was ≤ 50 nM.

Turning to `C=CC(=O)Nc1cccc(Oc2nc(Nc3ccc(N4CCN(C)CC4)c(Cl)c3)nc3ccsc23)c1`, the GI50 in assay [1] and in assay [2] was ≤ 50 nM in each case.

For the molecule `C=CC(=O)Nc1cccc(Oc2nc(Nc3ccc(N4CC5CC4CN5C)cc3)nc3ccsc23)c1` (configuration not stated), the GI50 was 50 to 100 nM in assay [1] and ≤ 50 nM in assay [2].

For the molecule `C=CC(=O)Nc1cccc(Oc2nc(Nc3ccc(N4CCOCC4)cc3)nc3ccsc23)c1`, the GI50 was 50 to 100 nM in assay [1] and ≤ 50 nM in assay [2].

In the case of `C=CC(=O)Nc1cccc(Oc2nc(Nc3ccc(C(=O)NC4CCN(C)CC4)c(OC)c3)nc3ccsc23)c1`, the GI50 in assay [1] is ≤ 50 nM; in assay [2] it was 50 to 100 nM.

Take `C=CC(=O)Nc1cccc(Oc2nc(Nc3ccc(N4CCC(n5ccnc5)C4)cc3)nc3ccsc23)c1` (configuration not stated): the GI50 in assay [1] and in assay [2] was ≤ 50 nM each time.

In the case of `C=CC(=O)Nc1cccc(Nc2nc(Nc3ccc(CCN(C)C)cc3)nc3ccsc23)c1`, the GI50 is 50 to 100 nM in assay [1] and ≤ 50 nM in assay [2].

Consider `C=CC(=O)Nc1cccc(Nc2nc(Nc3ccc(OCCN(C)C)cc3)nc3ccsc23)c1`, for which the GI50 in assay [1] and in assay [2] was ≤ 50 nM in each case.

Take `C=CC(=O)Nc1cccc(Oc2nc(Nc3ccc(CC(=O)NC4CCN(C)CC4)cc3)nc3ccsc23)c1`: the GI50 was 100 to 1000 nM in assay [1] and ≤ 50 nM in assay [2].

Take `C=CC(=O)Nc1cccc(Oc2nc(Nc3ccc(N4CCC(N5CCOCC5)CC4)c(F)c3)nc3ccsc23)c1`: the GI50 in assay [1] and in assay [2] was ≤ 50 nM in each case.

For `C=CC(=O)Nc1cccc(Nc2nc(Nc3ccc(C4CCCN(C)C4)cc3)nc3ccsc23)c1` (configuration not stated), the GI50 in assay [1] and in assay [2] was ≤ 50 nM throughout.

Take `C=CC(=O)Nc1cccc(Oc2nc(Nc3ccc(C(=O)NC)cc3)nc3ccsc23)c1`: the GI50 in assay [1] and in assay [2] was 50 to 100 nM each time.

On to `C=CC(=O)Nc1cccc(Oc2nc(Nc3ccc(CN4CCN(C5CCN(C)CC5)CC4)cc3)nc3ccsc23)c1`, for which the concentration for 50% growth inhibition (GI50) in assay [1] and in assay [2] was ≤ 50 nM each time.

Regarding `C=CC(=O)Nc1cccc(Oc2nc(Nc3ccc(N4CCS(=O)(=O)CC4)cc3)nc3ccsc23)c1`, the GI50 in assay [1] and in assay [2] was ≤ 50 nM each time.

In the case of `C=CC(=O)Nc1cccc(Oc2nc(Nc3ccc(CP(=O)(OC)OC)cc3)nc3ccsc23)c1`, the 50% growth inhibitory concentration (GI50) in assay [1] and in assay [2] was ≤ 50 nM throughout.

With `C=CC(=O)Nc1cccc(Oc2nc(Nc3ccc(N4CCN(CCO)CC4)cc3)nc3ccsc23)c1`, the GI50 in assay [1] and in assay [2] was ≤ 50 nM each time.

Consider `C=CC(=O)Nc1cccc(Oc2nc(Nc3ccc(N4CC[S+]([O-])CC4)cc3)nc3ccsc23)c1`, for which the GI50 in assay [1] and in assay [2] was ≤ 50 nM each time.

As for `C=CC(=O)Nc1cccc(Oc2nc(Nc3ccc(CS(C)(=O)=O)cc3)nc3ccsc23)c1`, the GI50 in assay [1] and in assay [2] was ≤ 50 nM in each case.

On to `C=CC(=O)Nc1cccc(Oc2nc(Nc3ccc(C(=O)N(C)C)c(Cl)c3)nc3ccsc23)c1`, for which the results for the GI50 in assay [1] and in assay [2] were 50 to 100 nM and ≤ 50 nM, respectively.

Take `C=CC(=O)Nc1cccc(Oc2nc(Nc3ccc(S(=O)(=O)NC4CC4)cc3)nc3ccsc23)c1`: the GI50 in assay [1] was 50 to 100 nM; in assay [2], ≤ 50 nM.

With `C=CC(=O)Nc1cccc(Nc2nc(Nc3ccc(N4CCN(C(C)C)CC4)cc3)nc3ccsc23)c1`, the GI50 in assay [1] and in assay [2] was ≤ 50 nM throughout.

As to `C=CC(=O)Nc1cccc(Oc2nc(Nc3ccc(N4CCSCC4)cc3)nc3ccsc23)c1`, the GI50 was 100 to 1000 nM in assay [1] and ≤ 50 nM in assay [2].

Turning to `C=CC(=O)Nc1cccc(Oc2nc(Nc3ccc(N4CCN(C)CC4)nc3)nc3ccsc23)c1`, the GI50 in assay [1] and in assay [2] was ≤ 50 nM each time.

On to `C=CC(=O)Nc1cccc(Oc2nc(Nc3ccc(N4CCN(C(=O)N5CCOCC5)CC4)cc3)nc3ccsc23)c1`, for which the GI50 in assay [1] was ≤ 50 nM; in assay [2], 50 to 100 nM.

As for `C=CC(=O)Nc1cccc(Oc2nc(Nc3ccc(NC4CCN(C)CC4)c(F)c3)nc3ccsc23)c1`, the 50% growth inhibitory concentration (GI50) in assay [1] and in assay [2] was ≤ 50 nM in each case.

With `C=CC(=O)Nc1cccc(Oc2nc(Nc3ccc4c(c3)CCCC(=O)N4C)nc3ccsc23)c1`, the GI50 in assay [1] and in assay [2] was 50 to 100 nM each time.

With `C=CC(=O)Nc1cccc(Oc2nc(Nc3ccc(N4CCC(N5CCCC5)CC4)c(F)c3)nc3ccsc23)c1`, the GI50 in assay [1] and in assay [2] was ≤ 50 nM throughout.

In the case of `C=CC(=O)Nc1cccc(Oc2nc(Nc3ccc(N4CCN(S(=O)(=O)CC)CC4)cc3)nc3ccsc23)c1`, the 50% growth inhibitory concentration (GI50) is ≤ 50 nM in assay [1] and 50 to 100 nM in assay [2].

For `C=CC(=O)Nc1cccc(Sc2nc(Nc3ccc(N4CCOCC4)c(F)c3)nc3ccsc23)c1`, the GI50 in assay [1] and in assay [2] was ≤ 50 nM in each case.

Consider `C=CC(=O)Nc1cccc(Oc2nc(Nc3ccc(CCN4CCCCC4)cc3)nc3ccsc23)c1`, for which the GI50 in assay [1] and in assay [2] was ≤ 50 nM each time.

Turning to `C=CC(=O)Nc1cccc(Oc2nc(Nc3ccc(N4CCN(C(C)(C)C)CC4)cc3)nc3ccsc23)c1`, the GI50 in assay [1] and in assay [2] was ≤ 50 nM in each case.

In the case of `C=CC(=O)Nc1cccc(Oc2nc(Nc3ccc(N4CCN(CCOC)CC4)cc3)nc3ccsc23)c1`, the 50% growth inhibitory concentration (GI50) in assay [1] and in assay [2] was ≤ 50 nM each time.

For the molecule `C=CC(=O)Nc1cccc(Oc2nc(Nc3ccc(N4CCN(CCO)CC4)cn3)nc3ccsc23)c1`, the values for the concentration for 50% growth inhibition (GI50) in assay [1] and in assay [2] were ≤ 50 nM and 50 to 100 nM, respectively.

With `C=CC(=O)Nc1cccc(Oc2nc(Nc3ccc(OCCOC)cc3)nc3ccsc23)c1`, the values for the GI50 in assay [1] and in assay [2] were 50 to 100 nM and ≤ 50 nM, respectively.
